Reference: US10106515B2, “1-(cyclopent-2-en-1-yl)-3-(2-hydroxy-3-(arylsulfonyl)phenyl)urea derivatives as CXCR2 inhibitors” (GLAXOSMITHKLINE INTELLECTUAL PROPERTY DEVELOPMENT LIMITED, priority 2014, dated 2018)

System: upregulation of CD11b in GROα stimulated neutrophils in human whole blood
Experiment: Human whole blood assay (CD11b upregulation)
Format: cell-based
Details: Homo sapiens, Neutrophil, inhibition of CD11b upregulation, GROα 33 nM final, flow cytometry, read-out: pIC50 (human whole blood assay) (converted)
Outline: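 Heparinised human whole blood preincubated 15 min at 37 °C with compound (10-point, 1:3 dilutions), then stimulated with 33 nM final GROα for 15 min at 37 °C. CD11b-FITC/CD16-PE staining on ice, lysis/fixation, flow cytometry; neutrophils gated by side scatter and CD16.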

Compound: CC1=CCC[C@H]1NC(=O)Nc1ccc(Cl)c(S(=O)(=O)[C@@]2(C)CCOC2)c1O [Compound 195, 1-(4-chloro-2-hydroxy-3-(((S)-3-methyltetrahydrofuran-3-yl)sulfonyl)phenyl)-3-((R)-2-methylcyclopent-2-en-1-yl)urea]
- IC50: 39.8 nM
